The experiment deals with T1, human GPR120 (Homo sapiens, UniProt Q5NUL3).
T1 construct: expressed in transfected cells
T1 sequence (Q5NUL3 1-361): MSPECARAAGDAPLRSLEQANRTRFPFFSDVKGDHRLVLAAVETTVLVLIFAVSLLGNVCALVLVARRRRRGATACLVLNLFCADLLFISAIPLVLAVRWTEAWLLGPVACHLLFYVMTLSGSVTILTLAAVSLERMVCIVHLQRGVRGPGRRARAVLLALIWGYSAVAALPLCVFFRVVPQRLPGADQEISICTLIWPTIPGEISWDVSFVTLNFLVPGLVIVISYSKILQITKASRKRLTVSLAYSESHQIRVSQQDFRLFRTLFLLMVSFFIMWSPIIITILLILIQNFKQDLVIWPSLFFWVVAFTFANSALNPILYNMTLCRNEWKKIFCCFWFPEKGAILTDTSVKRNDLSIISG
The experiment in a line: Measurement of intracellular calcium concentration (FLIPR), GPR120 agonist action. The experiment is classed as cell-based. As to conditions: human GPR120 expression CHO cells, Fluo-4 AM. An excerpt: Primers were synthesized in the domains on the opposite sides of the base sequences of the ORFs of the known GPCR and GPR120 in GenBank Accession NOs. NM 181745 (human) and NM 181748 (mouse), and the genes were cloned by RT-PCR. The base sequences of the primers used are described below. The restriction enzymes, BamHI and EcoRI, recognition sites were introduced for subcloning, respectively.
Using Lipofectamine 2000 (Invitrogen), cDNA of GPR120 receptor was transfected into CHO/NFAT-BLA cells, and drug-resistant cells were isolated to obtain GPR120 stable expression strains. The GPR120-expressed CHO cells were cultured in DMEM/F12 medium containing 10% fetal bovine serum, 100 units/ml penicillin, 0.1 mg/ml streptomycin sulfate, 250 μg/ml Zeocin, 500 μg/mL Geneticin and 15 mM HEPES.
On the day before the measurement day, 4 μM Fluo-4 AM (fluorescence calcium indicator reagent) was incubated to be introduced into the human GPR120 expression CHO cells plated at 20000 cells per well of a 96-well black plate (ViewPlate; Packard) in the presence of 2.5 mM probenecid in a CO2 incubator for 1 hour. […] Variations in the intracellular calcium concentration were measured by Fluorescence Imaging Plate Reader (FLIPR; Molecular Devices) to examine the agonist action, and EC50 values were calculated.

Take `O=C1c2ccccc2CN1c1cc(F)cc(Oc2cccnc2)c1` [Example 1, 2-[3-fluoro-5-(pyridin-3-yloxy)phenyl]isoindolin-1-one]: the EC50 is 0.85 µM.

Turning to `O=S1(=O)c2ccccc2CN1c1cc(F)cc(Oc2cccnc2)c1` [Example 2, 2-[3-fluoro-5-(pyridin-3-yloxy)phenyl]-2,3-dihydro-1,2-benzisothiazol-1,1-dioxide], the EC50 was determined as 0.18 µM.

The record behind these values is patent US8362052B2, “Isoindolin-1-one derivative” (MSD K.K., priority 2009, dated 2013).
